Data from patent US20260174739A1 (priority 2022, published 2026).
pIC50: −log10 of the molar value.

Target: human NET (Homo sapiens, UniProt P23975)
Experiment: NET transporter inhibitory activity test (neurotransmitter transporter uptake assay kit)
Format: cell-based
Protocol: Transporter inhibition of human DAT and NET expressed in HEK-293 cells was assessed using a neurotransmitter transporter uptake assay kit. The assay was performed as described in the kit instructions, using centanafadine as a positive control. The specific procedures were as follows:
First day cell plating: HEK 293T cells were digested with trypsin, centrifuged, resuspended with a medium, counted, and seeded into a 6 cm culture dish at a density of 3×10^6 cells/well.
Second day cell transfection: HEK 293T cells were subjected to medium exchange, and then A, B tubes were prepared for NET-pcDNA5/FRT plasmid to be transfected. 200 μL of Opti-MEM was added to tube A, and 10 μL of Lipofectamine™ 3000 was added. The mixture was mixed well. 200 μL of Opti-MEM was added to tube B, and 5 μg of NET-pcDNA5/FRT plasmid was added. The mixture was mixed well, and then 10 μL of P3000™ was added to tube B. The mixture was mixed well (plasmid to transfection reagent ratio 1 μg:2 μL). The diluted solution of tube A was added to the diluted solution of tube B. The mixture was mixed well, and incubated at room temperature for 15 min. Finally, the mixture was gently added to the cells that had been subjected to medium exchange, gently shaken to mix, and then incubated overnight in an incubator at 37° C. with a carbon dioxide concentration of 5%. The cells were used for compound functional activity assays 18-20 h after transfection.
• a) After overnight transfection of NET cells, the cells were digested with trypsin, resuspended with DMEM+10% Dialyzed FBS medium, seeded into a 384-well plate at 20000 cells/well, and incubated overnight. Stably transfected DAT cells were digested with trypsin, resuspended with DMEM+10% Dialyzed FBS medium, seeded into a 384-well plate at 2500 cells/well, and incubated overnight. • b) 1× Assay buffer was prepared according to the kit instruction for later use; the positive compound and the test compound were serially diluted with DMSO, and then diluted to 2× with 1× assay buffer. • c) The medium was removed from the 384-well plate by centrifugation. • d) 16 μL of the compound prepared in step b) was added to corresponding experimental wells, wherein an initial concentration of 2× positive control compound was added to the positive control well, and 0.2% DMSO buffer was added to the negative control well. After centrifuging, the plate was incubated at 37° C. for 30 min. • e) A detection reagent was prepared using 1×HBSS, and 16 μL of the detection reagent was added to each well. After centrifuging, the plate was incubated at 37° C. for 60 min. • f) After incubation, the reading at 510 nm under the excitation of the detection wavelength of 425 nm was measured using a microplate reader. Curve fitting and IC50 calculation were performed using GraphPad Prism software nonlinear regression method.

Chain of human NET (P23975 whole entry): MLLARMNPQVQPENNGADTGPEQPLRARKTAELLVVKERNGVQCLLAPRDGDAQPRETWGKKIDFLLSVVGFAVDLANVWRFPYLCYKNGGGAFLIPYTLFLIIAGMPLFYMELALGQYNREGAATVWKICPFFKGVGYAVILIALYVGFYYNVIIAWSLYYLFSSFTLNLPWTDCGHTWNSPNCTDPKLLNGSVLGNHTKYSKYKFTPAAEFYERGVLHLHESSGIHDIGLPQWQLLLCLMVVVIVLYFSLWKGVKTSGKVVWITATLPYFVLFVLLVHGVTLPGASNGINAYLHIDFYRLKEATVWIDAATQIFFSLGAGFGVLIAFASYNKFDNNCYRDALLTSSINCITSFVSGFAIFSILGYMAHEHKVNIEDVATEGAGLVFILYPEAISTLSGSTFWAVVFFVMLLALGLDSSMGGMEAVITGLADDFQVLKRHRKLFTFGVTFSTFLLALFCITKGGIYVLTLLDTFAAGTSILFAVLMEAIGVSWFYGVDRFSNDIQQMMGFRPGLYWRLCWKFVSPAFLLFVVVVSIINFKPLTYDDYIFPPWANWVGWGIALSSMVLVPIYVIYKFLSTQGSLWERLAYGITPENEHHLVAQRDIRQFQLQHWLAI

CCNC1(c2ccccc2)CCc2nc(N)sc2C1 (racemic) [rac-A5, N^6-ethyl-6-phenyl-4,5,6,7-tetrahydrobenzothiazole-2,6-diamine]
pIC50: 5.48
